According to EP4775570A1, “CYP11A1 INHIBITOR, PREPARATION METHOD THEREFOR AND USE THEREOF” (Shenzhen Zhongge Biological Technology Co., Ltd., priority 2023, dated 2025):

Columns and labels:
[1] = system: testosterone, progesterone, corticosterone; assay: LC-MS detection of testosterone, progesterone and corticosterone in mouse tumors and adrenal glands; type: in vivo; conditions: mouse tumors and adrenal glands, VCaP model
Text: • Mouse tumors were homogenized using PBS in a 1:5 ratio (tumor weight (g): PBS volume (mL), w/v); • Mouse adrenal glands were homogenized using PBS in a 1:10 ratio (adrenal gland weight (g): PBS volume (mL), w/v); • Standard sample: testosterone (LGC, C17322500), progesterone (MCE, HY-N0437), adrenal ketone (MCE, HY-B1618), and standard solution of test substance.
Experiment procedures: since the three markers, i.e., testosterone, progesterone, and adrenal ketone, are all endogenous substances and present in the blank matrix as well, PBS was alternatively used as matrix in the production of the standard curve.
Testosterone: multiple reaction monitoring (MRM) method was used for detecting the concentrations of testosterone in mouse tumors and adrenal glands. Mass spectrum: AB Sciex Triple Quad 6500+; liquid chromatography: Shimadzu 40A, column: Waters XBridge BEH C18 2.5 µm 2.1*50mm, testosterone ion pair: 289.4/97.2. Both tumor and adrenal tissues were treated with methanol as precipitant and tolbutamide as internal standard for sample pretreatment, with linear range in 50-50,000pg/mL.
Progesterone and corticosterone: multi-reaction detection method (MRM) was used for detecting the concentrations of progesterone and corticosterone in mouse tumors and adrenal glands. Mass spectrum: AB Sciex Triple Quad 6500+; liquid chromatography: Shimadzu 40A, column: Waters XSelect HSS T3 2.5 µm 2.1*50mm, progesterone ion pair: 315.4/97.2, adrenone ion pair: 347.4/121.3. For tumor tissues, acetonitrile was used as precipitant and propranolol diclofenac as internal standard for sample pretreatment, with linear ranges in 0.05-10 ng/mL of progesterone and 0.10-20 ng/mL of corticosterone. For adrenal tissues, methanol was used as precipitant and propranolol diclofenac as internal standard for sample pretreatment, with linear ranges in 5-2,500 ng/mL of progesterone and 5-2,500 ng/mL of corticosterone.

[2] = PK study, intravenous and oral administration, plasma LC-MS/MS; type: in vivo; conditions: both sexes, 5 mg/kg, oral administration of 5 mpk, species not given (ICR mice or SD Rat); for bioavailability: read-out: bioavailability (F)
Procedure: ICR mice (male/female, total 6 animals) were assigned to two groups for oral administration and intravenous administration, respectively, with 3 mice in each group. Before administration, the animals were fasted for 10-14 hours, with water available ad lib.
SD Rat (male/female, total 6 animals) were assigned to two groups for oral administration and intravenous administration, respectively, with 3 mice in each group. Before administration, the animals were fasted for 10-14 hours, with water available ad lib.
The compounds to be tested were weighed out in accordance with intended dosage, formulated with vehicles (5% DMSO + 10% Solutol + 85% physiological saline) to dosage form at appropriate concentrations (administered intravenously and orally in rats or mice at a volume of 5 mL/kg and 10 mL/kg, respectively). The dosage form for intravenous injection is a clear solution, and the dosage form for oral administration is a clear solution or homogenous suspension.
Administration to animals was conducted through intravenous injection and oral gavage, and blood samples were collected at 0.033, 0.083, 0.25, 0.5, 1, 2, 4, 8, and 24 hours after intravenous injection, or at 0.083, 0.25, 0.5, 1, 2, 4, 6, 8, and 24 hours after oral administration. After centrifugation of whole blood samples at 4°C and 6,800g for 6 minutes, the upper layers of plasma were stored at -80°C refrigerator before analysis.
The DMSO stock solutions of the substance to be tested were diluted with methanol or acetonitrile solution to serial working solutions and added to blank plasma matrix to formulate samples for standard curve and quality control. An appropriate volume of plasma sample was added with appropriate fold of methanol or acetonitrile containing internal standards, according to response, for protein precipitation. After centrifugation of all samples at 4°C and 18,000g for 10 min, appropriate volumes of supernatant were taken for LC-MS/MS analysis.
Plasma drug concentration-time curves were plotted in accordance with tested concentrations, and pharmacokinetic parameters were calculated based on non-compartmental model using WinNonlin software, including half-life (T1/2), area under the drug concentration-time curve (AUC0-t), clearance rate (CL), steady-state distribution volume (Vss), bioavailability (F), etc.

[3] = system: VCaP castration-resistant prostate cancer subcutaneous transplant tumor model; assay: In vivo pharmacodynamic study in a VCaP castration-resistant prostate cancer subcutaneous transplant tumor model; design: species or system SCID-Beige mice; conditions: 30mg/kg BID oral + prednisone 0.6mg/kg QD, castrated tumor-bearing mice, 32 days
Procedure: Animals: experimental male SCID-Beige mice, 6-8-weeks old or 18-22g, provided by Beijing Vital River Laboratory Animal Technology Co., Ltd.
Experiment procedures: all experimental animals were kept within specific-pathogen-free animal barrier facility, and allowed 3 days of adaptation before the experiment began. VCaP tumor cells were in vitro cultured as monolayer in DMEM complete medium (with 10% fetal bovine serum and 1% penicillin & streptomycin) at 37°C in air containing 5% CO2. Tumor cells were routinely passaged 2-3 times a week, and cells in exponential growth phase were collected and counted for tumor cell inoculation. 10x10^6 VCaP tumor cells were resuspended in 0.1ml PBS, thoroughly mixed with 0.1ml matrigel, and then inoculated subcutaneously on the right flank of each mouse to form a tumor. The tumor-bearing mice were allowed to develop to an average tumor volume of around 200mm^3 and underwent castration surgery. The tumor volumes of all mice were measured after one week of castration surgery. Suitable tumor-bearing mice were selected and assigned randomly into the following groups: blank control group, prednisone (0.6mg/kg, QD) group, abiraterone (33.73mg/kg, QD) + prednisone (0.6mg/kg, QD) group, ODM-208 (30mg/kg, BID) + prednisone (0.6mg/kg, QD) group, and the compound of the present disclosure (30mg/kg, BID) + prednisone (0.6mg/kg, QD) group. Animals in blank control group were orally administered with vehicles (0.5%MC+0.5%Tween80 and 0.5%CMCNa), and the animals in other groups were orally administered with corresponding compound. The experiment lasted for 32 days, and during the experiment, the animals in each group were measured for tumor volume and body weight twice a week.

Row | AUC [2] [ng·h/mL] | Cmax [2] [ng/mL] | bioavailability [2] [%] | half-life ([2]; read-out: half-life (t1/2) (converted)) [h] | SMILES | secretion of testosterone, progesterone and corticosterone in tumors and adrenal glands (in words) [1] | tumor inhibition rate TGI [3] [%]
1 | 1310 | 807 | 59 | 1.8 | CS(=O)(=O)N1CCC(COc2coc(CN3Cc4ccccc4C3)cc2=O)CC1 [ODM-208, reference compound] | significantly inhibits | 85
2 | > 1700 | > 1000 | > 60 | – | Cn1c(CN2Cc3ccccc3C2)c(F)cc(C=CC2CCN(S(C)(=O)=O)CC2)c1=O [compound 113] | – | –
